Experimental data reported in PubChem BioAssay (NCI).
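Method: 48-hour compound exposure of cells in 96-well plates, five concentrations, linear interpolation of endpoints. The concentration for full growth arrest is given as TGI.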

What was measured:
Assay in all cases: inhibition of tumour cell growth, NCI panel, 48 h
[1] = tested on: MDA-N
[2] = tested on: RPMI-8226 leukemia
[3] = tested on: OVCAR-3 ovarian
[4] = tested on: MDA-MB-231 breast
[5] = tested on: DU-145 prostate
[6] = tested on: OVCAR-8 ovarian
[7] = tested on: TK-10 renal
[8] = tested on: COLO 205 colon
[9] = tested on: MDA-MB-435
[10] = tested on: MOLT-4 leukemia

Row | SMILES | TGI [1] | TGI [2] | TGI [3] | TGI [4] | TGI [5] | TGI [6] | TGI [7] | TGI [8] | TGI [9] | TGI [10]
1 | O=C(O)CC(CC(=O)O)C(=O)O | > 100 µM | > 100 µM | > 100 µM | > 100 µM | > 100 µM | > 100 µM | > 100 µM | > 100 µM | > 100 µM | > 100 µM
2 | O=C(O)CC1NC(/C(=C/c2ccccc2)NC(=O)c2ccccc2)OC1=O (stereo not given) | 86.4 µM | 63.4 µM | 51.2 µM | 69.7 µM | > 100 µM | 66.5 µM | > 100 µM | 40.6 µM | 67 µM | 45.1 µM
3 | OC1[C@@H]2[C@@H](O)[C@H](O)[C@@H](O)N2C[C@@H]1O (stereo not given in full) | > 100 µM | > 23.5 µM | > 100 µM | > 100 µM | > 100 µM | > 100 µM | > 100 µM | > 100 µM | > 100 µM | > 100 µM
4 | C/C(=N\NC(=S)N1CCCCC1)c1nc2ncccc2[nH]1 | 47.9 µM | 30.1 µM | > 100 µM | > 100 µM | 86.3 µM | 34.8 µM | 68.4 µM | > 100 µM | 35 µM | 19.9 µM
5 | O=C1NC(NNc2ccccc2)=N/C1=C\c1ccccc1O | > 100 µM | > 100 µM | > 100 µM | > 100 µM | > 100 µM | > 100 µM | > 100 µM | > 100 µM | > 100 µM | > 100 µM
6 | COc1cc(/C=C2\C[C@H]3[C@@H]4CCc5cc(O)ccc5[C@H]4CC[C@]3(C)C2=O)cc(OC)c1OC | 62.3 µM | 28.9 µM | 26.9 µM | 43.9 µM | 17.5 µM | 30.1 µM | 25.1 µM | 61.5 µM | 48.6 µM | 23.1 µM
7 | O=C(C=P(c1ccccc1)(c1ccccc1)c1ccccc1)c1ccc(-c2cccc([N+](=O)[O-])c2)s1 | > 100 µM | 54.9 µM | > 100 µM | > 100 µM | > 100 µM | > 100 µM | > 100 µM | 27.9 µM | > 100 µM | 55.6 µM
8 | COc1cc(C(=O)n2c3ccc(Br)cc3c3nc4ccccc4nc32)cc(OC)c1OC | > 100 µM | > 100 µM | > 100 µM | > 100 µM | > 100 µM | > 100 µM | > 100 µM | > 100 µM | > 100 µM | > 100 µM
9 | COC(=O)CC(C#N)(OP1(=O)OC(c2ccccc2)C(C)N1C)c1ccccc1 (stereo not given) | 75.4 µM | 70.2 µM | 42.6 µM | > 100 µM | > 100 µM | 67.1 µM | > 100 µM | > 100 µM | 53.7 µM | 59.2 µM
10 | OC1(C(F)(F)F)OCCN=C1C(F)(F)F (stereo not given) | > 100 µM | > 100 µM | > 100 µM | > 100 µM | > 100 µM | > 100 µM | > 100 µM | > 100 µM | > 100 µM | > 100 µM
11 | CCCn1c2ccccc2c2ccc3c(c21)C(=O)C=CC3=O | 6.43 µM | 5.4 µM | 4.88 µM | 5.08 µM | > 10 µM | > 6.96 µM | 3.76 µM | 5.17 µM | 5.29 µM | 2.26 µM
12 | N=C1/C(=C/c2ccc(F)cc2)C(=O)N=C2SC=NN12 | > 100 µM | > 100 µM | > 100 µM | > 100 µM | > 100 µM | > 100 µM | > 100 µM | > 100 µM | > 100 µM | > 100 µM
13 | Cc1cc(C)nc(NC(=O)c2ccc(Br)s2)c1 | > 100 µM | 16.6 µM | > 100 µM | 81.6 µM | > 100 µM | > 100 µM | > 100 µM | 23.5 µM | > 100 µM | > 100 µM
14 | Oc1c(C2=NNC(c3ccc(Cl)cc3Cl)C2)ccc2ccccc12 (stereo not given) | 55.5 µM | > 100 µM | > 100 µM | > 100 µM | > 100 µM | > 100 µM | > 100 µM | > 100 µM | > 100 µM | 31.4 µM
15 | O=c1cc(N2CCOCC2)[nH]c(=O)n1-c1ccc(F)cc1 | > 100 µM | > 100 µM | > 100 µM | > 100 µM | > 100 µM | > 100 µM | > 100 µM | > 100 µM | > 100 µM | > 100 µM
16 | c1nc(OCC2CCCCC2)c2[nH]cnc2n1 | > 100 µM | > 100 µM | > 100 µM | > 100 µM | > 100 µM | > 100 µM | > 100 µM | > 100 µM | > 100 µM | > 100 µM
17 | CC(=O)Nc1ccc(C(=O)NN2C(=O)CSC2c2ccc([N+](=O)[O-])cc2)cc1 (stereo not given) | > 100 µM | > 100 µM | > 100 µM | > 100 µM | > 100 µM | > 100 µM | > 100 µM | > 100 µM | > 100 µM | > 100 µM
